Source: US20230088286A1, “USP7 INHIBITOR FOR USE IN THE TREATMENT OF CANCER” (ALMAC DISCOVERY LIMITED, priority 2020, published 2023)

Tests used:
[1] = tested on: activated primary fibroblasts WI38, IMR90 and HDF; assay: sVEGF ELISA in activated primary fibroblasts; format: cell-based, human; conditions: fibroblasts activated with anti-CD3/anti-CD28 stimulated PBMCs, FGF-2 or TGFβ
Excerpt: FIG. 5: USP7 inhibition decreased secreted VEGF levels in activated fibroblasts. The USP7-mediated decrease in VEGF secretion observed in the co-cultures can be solely attributed to modulation of secreted VEGF in primary fibroblasts.
(FIG. 4). […] During the wound healing process or following stimulation by acute or chronic inflammatory signals, fibroblasts acquire an activated phenotype (referred to as myofibroblasts). Once activated, myofibroblasts proliferate and migrate, show contractile activity, exert physical forces to modify tissue architecture and become transcriptionally active leading to the secretion of cytokines, chemokines and extra-cellular matrix (ECM) components. In the tumour microenvironment, the majority of residual fibroblasts become activated and are known as cancer associated fibroblasts (CAF). In order to generate a myofibroblast phenotype, WI38, IMR90 and HDF were co-cultured with anti-CD3/anti-CD28 stimulated PBMCs or were stimulated by FGF-2 or TGFβ. […] The USP7 inhibitor-mediated decrease in VEGF secretion was only observed in primary fibroblasts; immortalized lung fibroblasts (WI38-VA13) were insensitive to USP7 inhibitor treatment, probably due to the destabilized p53 in the SV-40 immortalized fibroblasts (FIG. 7).
(§1) For the co-culture experiments, 5×10^4 cancer cells were seeded in transwell in 0.5 mL complete growth medium and placed on the top of 0.1×10^6 fibroblasts plated in 12-well in 1 mL low serum growth media overnight. Following day cancer cells were washed with PBS and media replaced with reduced (1%) serum growth media. 0.5×10^6 PBMC were plated on top of fibroblasts, incubated for 45 min and activated with CD3 (1 μg/ml final concentration) and CD28 (5 μg/ml final concentration). […] Monoculture experiments, 0.1×10^6 cells were seeded in 12-well in 1 mL of complete growth media (cancer cells) or low serum growth media (fibroblasts) and incubated overnight. […] Afterwards, cell culture media was collected, cell debris were removed by centrifugation the concentration of VEGF in the cell culture supernatants was measured using the human/mouse VEGF immunoassay Quantikine ELISA kit (R&D systems, Minneapolis, Minn., USA) according to the manufacturer's instructions. For the intracellular VEGF detection, total protein concentration was determined by BCA (Pierce Chemical, USA) and VEGF levels determined using the same kit described above.

[2] = tested on: primary fibroblasts, cancer cells, immortalized fibroblasts; assay: intracellular VEGF ELISA in cell lysates; format: cell-based, human; conditions: 48 h
Experimental: as §1

[3] = tested on: primary human fibroblasts (HDF) in hypoxic chamber; assay: sVEGF ELISA in primary fibroblasts under hypoxia; format: cell-based; conditions: 48 h
Excerpt: FIG. 9: USP7 inhibition decreases VEGF levels in fibroblasts under hypoxia.
In response to wounding and during tumour growth, activated fibroblasts secrete synthesizers and modifiers of the ECM but also soluble angiogenic growth factors such as VEGF. Although VEGF gene expression can be controlled by multiple transcription factors, its major regulator is hypoxia-inducible factor 1 (HIF-1). HIF-1 mediates activation of VEGF transcription in response to hypoxia in solid tumours and in various malignant cell lines.
To assess its potency in a functional assay, HDF were treated with vehicle or various concentrations of USP7 inhibitor ADC-159 and incubated for 48 hours in hypoxic chamber. Cell culture supernatants were collected, and secreted VEGF was measured by ELISA.
as §1

[4] = tested on: MMP-7; assay: MMP-7 in supernatants of HDF invasion assay (Luminex); format: cell-based, human; conditions: invading HDF, 96 hours
Experimental: The scratch wound cell invasion assay was used to measure the ability of primary human fibroblasts to invade through Matrigel® basement membrane. Cell culture supernatants from invasion assay were collected after 96 hours and MMP-7 levels were measured using Luminex®.
To further explore whether USP7 inhibition modulates MMP levels in invading fibroblasts, cell culture supernatants from HDF invasion assay were collected and presence of various MMP was detected using Luminex® Multiplex assay.
Concentrations of MMP2 and MMP7 were determined in cell culture supernatants in triplicates using Luminex human cytokine/chemokine multiplex kits (Millipore, St. Charles, Mo., USA) according to the manufacturer's protocol.

[5] = tested on: HDF and HUVEC co-culture; assay: In vitro co-culture tube formation assay; format: cell-based, human; conditions: for tube formation, pre-formed tubes: treated after tube formation; for tube length, de novo tube formation: treated prior to tube formation, 14 days
Experimental: Representative pictures taken at day 14 are shown. Tube formation was quantified by measuring tube length ([…]) and is shown.
HDF were seeded in 96-well plate (2500 cells/well). Once HDF formed a monolayer, media was removed and HUVECs (2500 cells/well) were seeded on top of HDF. […] The effect on existing vessels was assayed by allowing tubes to form prior to treatment. Cells were treated every 3-days during 14 days of incubation, followed by washing with PBS and fixation with 4% formaldehyde for 15 min at room temperature (RT). Cells were permeabilized with 1× PBS containing 0.1% Triton X-100 for 5 min at RT and blocked 30 min in 1% BSA/PBS. Afterwards, cells were incubated with CD31 antibody (Thermo Fisher, MA5-13188) […] followed by incubation with secondary Alexa fluor 488F goat-anti-mouse (Thermo Fisher, A28175) at 1/2000 dilution for 3 h at RT. Immunolabeled samples were counterstained with Hoechst 33342 nuclear dye (Thermo Fisher, 62249) at 1/1000 dilution for 15 min. Tubes were visualized with IN Cell Analyzer 2000 using a 2× objective. Tube length was measured and quantified using the AngioTool software for each imaging session (available in the public domain at https://ccrod.cancer.gov/confluence/display/ROB2/Downloads

[6] = tested on: HUVEC; assay: Matrigel tube formation assay; format: cell-based, human; conditions: 6 hours
Experimental: FIG. 28: USP7 inhibition has no direct effect on HUVEC tube formation in vitro. […] The tube formation images were taken after 6 h after tube initiation.
Each well of a pre-chilled 96-well plate was coated with 50 μL of unpolymerized growth factor reduced Matrigel® (9.2 mg/mL) and incubated at 37° C. in 5% CO2 for 2 h. HUVECs were harvested with trypsin, and 1.5×10^4 cells were resuspended in 100 μL complete endothelial cell growth medium. […] After approximately 6 hours of incubation at 37° C. in 5% CO2, images of the center of each were taken at 4× magnification.

[7] = tested on: CT-26 mouse cancer cell line; assay: CT-26 cell viability in vitro; format: cell-based
Experimental: CT-26 syngeneic models are in vivo models to monitor the effect of compounds on the TME. […] After 72 hours cell viability was measured by CellTiter-Glo®.

[8] = target: USP7 (Homo sapiens, UniProt Q93009); assay: TE (HCT116); format: cell-based
[9] = PPB Fu (h); format: in vitro ADME; conditions: human, plasma
[10] = target: 1A2 (Homo sapiens, UniProt P05177); assay: Cyp inhibition 1A2; format: in vitro ADME; conditions: read-out: Cyps: 1A2
Chain of 1A2 (P05177 whole entry): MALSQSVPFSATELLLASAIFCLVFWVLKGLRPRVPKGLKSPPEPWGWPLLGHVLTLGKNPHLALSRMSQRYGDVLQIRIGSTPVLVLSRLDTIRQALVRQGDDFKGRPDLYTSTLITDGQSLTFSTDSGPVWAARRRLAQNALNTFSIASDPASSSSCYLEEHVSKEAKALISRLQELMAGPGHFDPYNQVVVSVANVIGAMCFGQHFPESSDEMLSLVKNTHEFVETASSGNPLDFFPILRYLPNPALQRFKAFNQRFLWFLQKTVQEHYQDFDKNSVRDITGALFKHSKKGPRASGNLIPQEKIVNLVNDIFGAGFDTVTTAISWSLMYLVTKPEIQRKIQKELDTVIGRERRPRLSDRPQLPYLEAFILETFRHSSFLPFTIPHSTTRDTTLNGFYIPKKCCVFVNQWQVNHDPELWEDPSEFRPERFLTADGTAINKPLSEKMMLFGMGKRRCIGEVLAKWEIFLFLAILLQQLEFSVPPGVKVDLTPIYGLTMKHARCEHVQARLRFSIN

Chain of USP7 (Q93009 whole entry): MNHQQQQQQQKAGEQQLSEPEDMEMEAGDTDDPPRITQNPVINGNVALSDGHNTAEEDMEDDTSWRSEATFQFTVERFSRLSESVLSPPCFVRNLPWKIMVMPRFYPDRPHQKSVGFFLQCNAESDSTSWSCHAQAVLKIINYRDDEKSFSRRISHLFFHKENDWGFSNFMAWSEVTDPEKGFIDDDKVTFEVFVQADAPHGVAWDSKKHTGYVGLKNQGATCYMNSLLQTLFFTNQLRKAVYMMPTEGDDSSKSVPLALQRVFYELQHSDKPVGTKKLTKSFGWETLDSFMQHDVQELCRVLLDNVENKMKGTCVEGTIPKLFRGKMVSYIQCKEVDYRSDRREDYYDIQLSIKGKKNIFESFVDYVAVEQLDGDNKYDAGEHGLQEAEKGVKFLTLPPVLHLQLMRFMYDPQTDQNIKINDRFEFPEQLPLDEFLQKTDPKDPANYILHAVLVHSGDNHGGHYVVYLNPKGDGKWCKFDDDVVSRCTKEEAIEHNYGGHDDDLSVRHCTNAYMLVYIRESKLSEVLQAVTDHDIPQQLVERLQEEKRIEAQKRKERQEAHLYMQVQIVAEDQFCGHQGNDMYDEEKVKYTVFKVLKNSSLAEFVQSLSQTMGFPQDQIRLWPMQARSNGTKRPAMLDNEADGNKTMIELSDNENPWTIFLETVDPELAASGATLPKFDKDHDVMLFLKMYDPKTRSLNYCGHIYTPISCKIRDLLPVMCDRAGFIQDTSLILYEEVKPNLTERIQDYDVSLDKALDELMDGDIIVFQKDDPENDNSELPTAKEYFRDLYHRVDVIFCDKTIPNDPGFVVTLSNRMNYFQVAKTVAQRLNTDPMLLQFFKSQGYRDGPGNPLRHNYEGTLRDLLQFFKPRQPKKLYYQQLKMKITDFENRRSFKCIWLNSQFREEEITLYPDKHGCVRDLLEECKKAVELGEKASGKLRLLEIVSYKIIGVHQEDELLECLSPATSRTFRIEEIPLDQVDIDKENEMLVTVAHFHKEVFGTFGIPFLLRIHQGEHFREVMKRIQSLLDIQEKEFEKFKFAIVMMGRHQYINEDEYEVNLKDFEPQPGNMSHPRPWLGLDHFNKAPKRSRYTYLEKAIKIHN

Row | SMILES | sVEGF protein levels [1] | intracellular VEGF levels ([2]; cancer cells or immortalized fibroblasts) | intracellular VEGF levels ([2]; primary fibroblast lysates) | VEGF secretion under hypoxia [3] | MMP-7 levels [4] | tube formation, pre-formed tubes [5] | tube length, de novo tube formation [5] | HUVEC tube formation on Matrigel [6] | sensitivity of CT-26 cell line in vitro [7] | EC50 [8] [nM] | fraction unbound [9] | IC50 [10] [nM]
1 | C[C@H](CC(=O)N1CCC(O)(Cn2cnc3c(-c4ccc(CN)cc4)n(C)nc3c2=O)CC1)c1ccccc1 [AD-04, (R)-3-(4-(Aminomethyl)phenyl)-6-((4-hydroxy-1-(3-phenylbutanoyl)piperidin-4-yl)methyl)-2-methyl-2H-pyrazolo[4,3-d]pyrimidin-7(6H)-one] | dose-dependent decrease | not in cancer cells or immortalized fibroblasts | decreases | decreased in a dose-dependent manner | decreases | significantly less pronounced | significant reduction | did not disrupt | not sensitive | – | – | –
2 | CC1(C(=O)N2CCC(O)(Cn3cnc4c(cc(Cl)n4-c4ccc5c(c4)CCO5)c3=O)CC2)CC1 [ADC-159, 6-Chloro-7-(2,3-dihydrobenzofuran-5-yl)-3-((4-hydroxy-1-(1-methylcyclopropane-1-carbonyl)piperidin-4-yl)methyl)-3,7-dihydro-4H-pyrrolo[2,3-d]pyrimidin-4-One] | – | – | – | decreased VEGF levels in a dose-dependent manner | – | did not have significant effect | inhibitory effect | – | not sensitive | 126 | 0.15 | > 20000
